Data on seven compounds can be found in patent publication US8309745B2, “Epigallocatechin dimers or trimers having lipase inhibitory activity and/or antioxidant activity” (Suntory Holdings Limited, priority 2004, dated 2012).

The target of experiment [1] is T1, swine pancreatic lipase (Sus scrofa, UniProt P00591).
T1 construct: purchased Sigma
T1 sequence (P00591 1-450): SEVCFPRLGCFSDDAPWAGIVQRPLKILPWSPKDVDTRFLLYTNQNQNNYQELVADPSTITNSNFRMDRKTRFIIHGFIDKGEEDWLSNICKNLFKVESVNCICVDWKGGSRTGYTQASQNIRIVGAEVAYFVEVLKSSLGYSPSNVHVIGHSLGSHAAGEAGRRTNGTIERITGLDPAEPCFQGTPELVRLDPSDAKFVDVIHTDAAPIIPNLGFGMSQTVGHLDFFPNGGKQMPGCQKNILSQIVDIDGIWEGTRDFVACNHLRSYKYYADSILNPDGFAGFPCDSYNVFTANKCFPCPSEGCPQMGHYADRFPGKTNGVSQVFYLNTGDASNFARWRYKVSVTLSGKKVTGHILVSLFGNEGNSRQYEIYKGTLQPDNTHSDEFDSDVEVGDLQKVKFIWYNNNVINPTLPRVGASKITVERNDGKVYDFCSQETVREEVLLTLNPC
The experiment can be described thus: Measurement of lipase inhibitory activity (4-UMO fluorescence assay). The format is biochemical. The following applies: for lipase inhibitory activity compared with EGCG: in words; for IC50: swine pancreatic lipase, 4-UMO substrate, pH 8.0, 30-minute reaction, read-out: Lipase Inhibitory Activities of Various Polyphenols IC50. From the text:
Lipase inhibitory activity can be measured by any one of the lipase activity assays that are described in the prior applications mentioned in the Background Art. As for inhibitory activity against pancreatic lipase, an oleic ester of fluorescent 4-methylumbelliferone may be used as a substrate to measure the fluorescence from 4-methylumbelliferone that is formed by reaction with the lipase. The amount of a sample that provides 50% inhibition of lipase activity (IC50) may be substituted to express lipase inhibitory activity in accordance with the usual method.
For lipase activity measurement, an oleic ester of fluorescent 4-methylumbelliferone (4-UMO) was used as a substrate and the fluorescence from 4-methylumbelliferone formed by enzyme reaction was measured.
The buffer used in the measurement was 13 mM tris-HCl (pH 8.0) containing 150 mM NaCl and 1.36 mM CaCl2. The substrate 4-UMO (product of Sigma-Aldrich Co.) was prepared as 0.1 M solution in DMSO and then diluted 1,000-fold with the buffer. The lipase subjected to enzyme measurement was swine pancreatic lipase (product of Sigma) that had been diluted to a concentration of 400 U/ml with the buffer.
To start the enzyme reaction, 50 μl of buffered 4-UMO solution and 25 μl of distilled water (or an aqueous solution of sample) were loaded and mixed on a 96-well microplate and 25 μl of the buffered lipase solution was then added. After 30-minute reaction, 100 μl of 0.1 M citrate buffered solution (pH 4.2) was added to quench the reaction and the fluorescence from 4-methylumbelliferone (excitation wavelength: 355 nm; fluorescence wavelength: 460 nm), which was generated by the reaction, was measured with a fluorescence plate reader (Fluoroskan Asent CF: product of Labsystems).
The inhibitory activity of the test sample was determined as its amount that would provide 50% inhibition of lipase activity (IC50 in μl) compared to the activity of the control (distilled water).
The lipase inhibitory activities of six compounds (dimers of OHBFs and their trimer), as well as epigallocatechin gallate (EGCG) were measured in accordance with Example 1 and the results are shown in Table 1.

Experiment [2] in a line: Superoxide anion radical scavenging activity (hypoxanthine-xanthine oxidase reaction, ESR with DMPO). The conditions noted are these: O2- generated by hypoxanthine-xanthine oxidase, DMPO trapping agent. Here is the method: The superoxide anion radical scavenging activity was measured by the method to be described in Example 5. Briefly, O2^− was generated by means of hypoxanthine-xanthine oxidase reaction and 5,5-dimethyl-1-pyrrolin-N-oxide was used as a trapping agent to perform measurement by ESR. Measurements were conducted in the presence or absence of compounds of the present invention and the results were expressed as IC50 or the amount of a sample that provided 50% suppression of O2^− generation.
Evaluation was made of the activity for scavenging superoxide anion radicals generated by hipoxanthine-xanthine oxidase reaction, a kind of active oxygen.
After preparing (1) 2 mM hypoxanthine solution (dissolved in 0.1 M phosphate buffered solution at pH 7.4) and (2) 5.5 mM diethylenetriamine-pentaacetic acid (dissolved in 0.1 M phosphate buffered solution at pH 7.4), 5.0 ml of the solution (1), 3.5 ml of the solution (2), and 1.5 ml of 5,5-dimethyl-1-pyrrolin-N-oxide (DMPO, product of LABOTECH) were mixed to make reagent 1. A 50-μl portion of reagent 1 was put in a 1.5-ml microtube and incubated at 37° C. for 4 minutes. To the incubated reagent 1, a methanol solution of the sample was added in an amount of 20 μl and then 50 μl of xanthine oxidase (0.4 units/ml) was added, followed by stirring for 10 seconds. The reaction mixture was injected into a hematocrit tube, which was set in an ESR apparatus and sweeping in a magnetic field was started 60 seconds after addition of xanthine oxidase. The conditions of ESR measurement were as follows: Power, 4 mW; C. Field, 335.5 mT, SwWid (±), 5 mT; SwTime, 1 min; ModWid, 0.1 mT; Amp, 160; TimeC, 0.1 sec; Temperature, 20° C.
Among the ESR signals from DMPO-OOH, the signal of the lowest field strength was compared in height to the internal standard Mn^2+ signal and the ratio (S/M) was assumed to represent the amount of O2^− and the O2^− scavenging activity was calculated by the following formula: O2^− scavenging activity(%)=100−{100×(S/M in the presence of the sample)/(S/M in the absence of the sample)} Results: […]

The structures appear in SMILES notation.

Turning to `O=C(O[C@@H]1Cc2c(cc(O)c(Cc3c(O)cc4c(c3O)C[C@@H](OC(=O)c3cc(O)c(O)c(O)c3)[C@@H](c3cc(O)c(O)c(O)c3)O4)c2O)O[C@@H]1c1cc(O)c(O)c(O)c1)c1cc(O)c(O)c(O)c1` [Oolong homobisflavan C (3), oolong homobisflavan C], in experiment [1], the “lipase inhibitory activity compared with EGCG” value was “potent lipase inhibitory activity compared with EGCG” and the IC50 turned out to be 97 nM. For the same compound, the IC50 in experiment [2] was 6200 nM.

For the compound `Oc1cc([C@H]2Oc3cc(O)c(Cc4c(O)cc(O)c5c4O[C@H](c4cc(O)c(O)c(O)c4)[C@H](O)C5)c(O)c3C[C@H]2O)cc(O)c1O` [Didesgalloyl oolong homobisflavan B (6), didesgalloyl oolong homobisflavan B], in experiment [1], the IC50 stood at 2080 nM.

Regarding `O=C(O[C@@H]1Cc2c(O)cc(O)c(Cc3c(O)c(Cc4c(O)cc(O)c5c4O[C@H](c4cc(O)c(O)c(O)c4)[C@H](OC(=O)c4cc(O)c(O)c(O)c4)C5)c4c(c3O)C[C@@H](OC(=O)c3cc(O)c(O)c(O)c3)[C@@H](c3cc(O)c(O)c(O)c3)O4)c2O[C@@H]1c1cc(O)c(O)c(O)c1)c1cc(O)c(O)c(O)c1` [Trimer (4)], the “lipase inhibitory activity compared with EGCG” value in experiment [1] is given as “potent lipase inhibitory activity compared with EGCG”. Moreover, the IC50 worked out at 129 nM in experiment [1] and 10100 nM in experiment [2].

For the compound `O=C(O[C@@H]1Cc2c(O)cc(O)c(Cc3c(O)cc(O)c4c3O[C@H](c3cc(O)c(O)c(O)c3)[C@H](OC(=O)c3cc(O)c(O)c(O)c3)C4)c2O[C@@H]1c1cc(O)c(O)c(O)c1)c1cc(O)c(O)c(O)c1` [Oolong homobisflavan A (1), oolong homobisflavan A], the IC50 in experiment [1] was 49 nM.

For `O=C(O[C@@H]1Cc2c(O)cc(O)c(Cc3c(O)cc(O)c4c3O[C@H](c3cc(O)c(O)c(O)c3)[C@H](O)C4)c2O[C@@H]1c1cc(O)c(O)c(O)c1)c1cc(O)c(O)c(O)c1` [monodesgalloyl oolong homobisflavan A], in experiment [1], the IC50 came out at 271 nM.

As for `O=C(O[C@@H]1Cc2c(cc(O)c(Cc3c(O)cc(O)c4c3O[C@H](c3cc(O)c(O)c(O)c3)[C@H](OC(=O)c3cc(O)c(O)c(O)c3)C4)c2O)O[C@@H]1c1cc(O)c(O)c(O)c1)c1cc(O)c(O)c(O)c1` [Oolong homobisflavan B (2), oolong homobisflavan B], the IC50 in experiment [1] worked out at 108 nM.

Consider `O=C(O[C@@H]1Cc2c(O)cc(O)cc2O[C@@H]1c1cc(O)c(O)c(O)c1)c1cc(O)c(O)c(O)c1` [Epigallocathechin 3-O-gallate (7), (−)-epigallocatechin-3-O-gallate, reference compound], for which the IC50 in experiment [2] worked out at 14000 nM.

The IC50 is the concentration at which inhibition is half-maximal.
